This note sets out measurements from US20260337193A1, “SMALL MOLECULE INHIBITORS OF UBIQUITIN SPECIFIC PROTEASE 1 (USP1) AND USES THEREOF” (Insilico Medicine IP Limited, priority 2023, published 2026).

Test [1] deals with T1, Human recombinant USP1/UAF1 (Homo sapiens, UniProt O94782).
T1 construct: purchased R & D E-568-050; host or cells: baculovirus infected Sf21 cells
The test is described as follows: Enzymatic assay: USP1/UAF1 deubiquitination of Ubiquitin Rhodamine 110 (kinetic fluorescence). It is filed as biochemical. As to conditions: 2 nM USP1/UAF1, 15 min preincubation at RT, HEPES pH 8.0, 500 nM Ubiquitin Rhodamine 110. The protocol: Example A1: Enzymatic Assay
Human recombinant USP1/UAF1 expressed in baculovirus infected Sf21 cells were used (R & D, E-568-050). Test compound and/or vehicle was incubated with 2 nM of USP1/UAF1 in modified HEPES buffer pH 8.0 for 15 minutes at RT. The reaction was initiated by addition of 500 nM of Ubiquitin Rhodamine 110 (R & D, U-555-050) for kinetic reading. Slope change of fluorescence intensity was read spectrofluorimetrically at 485 nm/535 nm. Dose response of test compounds or reference compound ML-323 was analyzed by nonlinear regression of GraphPad prism software.

The subject of a further test is MDA-MB-436 cells. The test can be described thus: MDA-MB-436 breast cancer cell proliferation assay (CellTiter-Glo). It is filed as cell-based. Conditions: Homo sapiens, 168 h, 7 days, 37° C. The protocol:
Example A2: MDA-MB-436 Breast Cancer Cell Culture
MDA-MB-436 cells were grown in Leibovitz's L-15 medium with 10 μg/ml insulin, 16 μg/ml glutathione, 10% FBS. Cells were passaged at subconfluence after trypsinization and maintained in incubators at 37° C. in a humidified atmosphere with 5% CO2.
Example A3: MDA-MB-436 Breast Cancer Cell Proliferation Assay
Cell proliferation was determined using CellTiter-Glo® Luminescent Cell Viability Assay (Promega, #G7573). MDA-MB-436 cells were seeded in 384-well plates and allowed to attach for 24 h. Compounds were added into 384-well plate by ECHO, and incubated at 37° C. in a humidified atmosphere with 5% CO2. After 7 days, CellTiter-Glo® was added into 384 well plates, contents were mixed on an orbital shaker at 400 g for 2 min before centrifuging the plate for 2 min at 1000 rpm. After incubation at RT for 30 min, luminescence was read on envision.
On the technique in general: Cellular ATP, detected with luciferase, serves as a proxy for viable cell number.

By IC50 is commonly meant the concentration needed to halve the response being measured.

Bounds are passed on as bounds.

T1 sequence (O94782 whole entry): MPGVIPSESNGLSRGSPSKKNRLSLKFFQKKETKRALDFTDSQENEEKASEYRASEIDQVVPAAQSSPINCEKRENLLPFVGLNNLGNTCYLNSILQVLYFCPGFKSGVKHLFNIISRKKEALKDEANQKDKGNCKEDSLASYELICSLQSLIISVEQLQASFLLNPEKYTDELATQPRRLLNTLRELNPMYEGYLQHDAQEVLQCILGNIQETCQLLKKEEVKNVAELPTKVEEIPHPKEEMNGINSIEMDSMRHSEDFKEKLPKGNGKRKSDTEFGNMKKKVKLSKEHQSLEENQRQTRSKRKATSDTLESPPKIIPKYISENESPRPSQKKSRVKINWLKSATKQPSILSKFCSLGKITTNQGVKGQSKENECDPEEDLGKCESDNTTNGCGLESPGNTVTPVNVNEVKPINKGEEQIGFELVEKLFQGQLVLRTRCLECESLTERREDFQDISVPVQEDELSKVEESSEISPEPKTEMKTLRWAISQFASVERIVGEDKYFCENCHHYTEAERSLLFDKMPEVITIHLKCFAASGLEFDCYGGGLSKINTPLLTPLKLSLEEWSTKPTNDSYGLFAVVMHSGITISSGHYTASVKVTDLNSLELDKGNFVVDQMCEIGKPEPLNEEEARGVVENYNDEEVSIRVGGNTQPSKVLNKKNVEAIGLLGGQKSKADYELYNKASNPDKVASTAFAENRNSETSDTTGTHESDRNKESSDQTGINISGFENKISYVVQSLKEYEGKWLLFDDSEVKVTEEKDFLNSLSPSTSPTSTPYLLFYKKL
T1 sequence (Q8TAF3 whole entry partner): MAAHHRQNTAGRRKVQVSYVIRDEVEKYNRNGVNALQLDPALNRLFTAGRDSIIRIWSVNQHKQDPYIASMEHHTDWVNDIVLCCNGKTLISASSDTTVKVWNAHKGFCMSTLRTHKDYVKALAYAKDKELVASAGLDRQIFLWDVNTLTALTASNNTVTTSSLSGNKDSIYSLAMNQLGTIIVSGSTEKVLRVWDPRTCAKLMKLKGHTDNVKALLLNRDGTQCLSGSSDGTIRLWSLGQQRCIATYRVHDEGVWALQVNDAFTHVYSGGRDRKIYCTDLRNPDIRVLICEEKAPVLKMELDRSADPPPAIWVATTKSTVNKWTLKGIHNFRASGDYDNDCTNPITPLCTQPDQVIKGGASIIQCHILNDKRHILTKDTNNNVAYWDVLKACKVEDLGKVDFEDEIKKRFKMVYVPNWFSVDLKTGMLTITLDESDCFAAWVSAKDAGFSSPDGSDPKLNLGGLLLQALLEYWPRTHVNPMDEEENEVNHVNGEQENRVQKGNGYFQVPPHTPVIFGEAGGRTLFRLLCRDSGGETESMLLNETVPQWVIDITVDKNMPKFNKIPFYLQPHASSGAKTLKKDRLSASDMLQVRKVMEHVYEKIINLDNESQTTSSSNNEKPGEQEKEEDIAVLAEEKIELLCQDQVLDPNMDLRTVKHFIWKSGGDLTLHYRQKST

For `Cc1nn(-c2ccccc2C(C)C)c2c1CN(c1ncc(-c3nc(C(F)(F)F)cn3C)s1)C2` [Compound 22, 2-(1-(2-isopropylphenyl)-3-methyl-4,6-dihydropyrrolo[3,4-c]pyrazol-5(1H)-yl)-5-(1-methyl-4-(trifluoromethyl)-1H-imidazol-2-yl)thiazole], the IC50 in test [1] was 0.05 to 1 µM; in the test with MDA-MB-436 cells, 1 to 10 µM.
For `COc1ncnc(C2CC2)c1-n1nc(C(F)(F)F)c2c1CN(c1ccc(-c3nc(C(F)(F)F)cn3C)cn1)CC2` [Compound 23, 1-(4-cyclopropyl-6-methoxypyrimidin-5-yl)-6-(5-(1-methyl-4-(trifluoromethyl)-1H-imidazol-2-yl)pyridin-2-yl)-3-(trifluoromethyl)-4,5,6,7-tetrahydro-1H-pyrazolo[3,4-c]pyridine] the same measures were 0.05 to 1 µM and 0.05 to 1 µM.
For `Cc1nn(-c2c(OC(F)F)ncnc2C2CC2)c2c1CCN(c1ccc(-c3nc(C(F)(F)F)cn3C)cn1)C2` [Compound 24, 1-(4-cyclopropyl-6-(difluoromethoxy)pyrimidin-5-yl)-3-methyl-6-(5-(1-methyl-4-(trifluoromethyl)-1H-imidazol-2-yl)pyridin-2-yl)-4,5,6,7-tetrahydro-1H-pyrazolo[3,4-c]pyridine], the IC50 (in test [1]; in the test with MDA-MB-436 cells) was 0.05 to 1 µM throughout.
With `COc1ncnc(C2CC2)c1-n1nc(C)c2c1CN(c1ccc(-c3nc(C(F)(F)F)cn3C)c(F)n1)CC2` [Compound 25, 1-(4-cyclopropyl-6-methoxypyrimidin-5-yl)-6-(6-fluoro-5-(1-methyl-4-(trifluoromethyl)-1H-imidazol-2-yl)pyridin-2-yl)-3-methyl-4,5,6,7-tetrahydro-1H-pyrazolo[3,4-c]pyridine], the IC50 (in test [1]; with MDA-MB-436 cells) was below 0.05 µM throughout.
Regarding `CC(C)c1ncccc1-c1nccc2c1CC(c1ccc(-c3nc(C(F)(F)F)cn3C)cc1)C2` (stereo not shown) [Compound 26, 1-(2-isopropylpyridin-3-yl)-6-(4-(1-methyl-4-(trifluoromethyl)-1H-imidazol-2-yl)phenyl)-6,7-dihydro-5H-cyclopenta[c]pyridine], the results for the half-maximal inhibitory concentration (IC50) (in test [1]; in the test on MDA-MB-436 cells) were below 0.05 µM and 0.05 to 1 µM, respectively.
With `Cc1cnn(C(C)C)c1-n1nc(C)c2c1CN(c1ccc(-c3nc(C(F)(F)F)cn3C)cn1)CC2` [Compound 27, 1-(1-isopropyl-4-methyl-1H-pyrazol-5-yl)-3-methyl-6-(5-(1-methyl-4-(trifluoromethyl)-1H-imidazol-2-yl)pyridin-2-yl)-4,5,6,7-tetrahydro-1H-pyrazolo[3,4-c]pyridine], the IC50 (in test [1]; with MDA-MB-436 cells) was below 0.05 µM each time.
As for `COc1ncnc(C2CC2)c1-n1nc(Cl)c2c1CN(c1ccc(-c3nc(C(F)(F)F)cn3C)cn1)CC2` [Compound 28, 3-chloro-1-(4-cyclopropyl-6-methoxypyrimidin-5-yl)-6-(5-(1-methyl-4-(trifluoromethyl)-1H-imidazol-2-yl)pyridin-2-yl)-4,5,6,7-tetrahydro-1H-pyrazolo[3,4-c]pyridine], the IC50 (in test [1]; in the test with MDA-MB-436 cells) was below 0.05 µM each time.
As for `CCn1cc(C(F)(F)F)nc1-c1cnc(N2CCc3c(C)nn(-c4c(C)cnn4C(C)C)c3C2)cn1` [Compound 29, 6-(5-(1-ethyl-4-(trifluoromethyl)-1H-imidazol-2-yl)pyrazin-2-yl)-1-(1-isopropyl-4-methyl-1H-pyrazol-5-yl)-3-methyl-4,5,6,7-tetrahydro-1H-pyrazolo[3,4-c]pyridine], the IC50 (in test [1]; in the test with MDA-MB-436 cells) was below 0.05 µM in each case.
On to `Cc1cnn(C(C)C)c1-n1nc(C)c2c1CN(c1ccc(-c3nc(C(F)(F)F)cn3C)c(F)c1)CC2` [Compound 30, 6-(3-fluoro-4-(1-methyl-4-(trifluoromethyl)-1H-imidazol-2-yl)phenyl)-1-(1-isopropyl-4-methyl-1H-pyrazol-5-yl)-3-methyl-4,5,6,7-tetrahydro-1H-pyrazolo[3,4-c]pyridine], for which the IC50 (in test [1]; in the test on MDA-MB-436 cells) was below 0.05 µM throughout.
Take `COc1ncnc(C2CC2)c1-c1nccc2c1CC(c1ccc(-c3nc(C(F)(F)F)cn3C)cn1)C2` (stereo not shown) [Compound 31, 1-(4-cyclopropyl-6-methoxypyrimidin-5-yl)-6-(5-(1-methyl-4-(trifluoromethyl)-1H-imidazol-2-yl)pyridin-2-yl)-6,7-dihydro-5H-cyclopenta[c]pyridine]: the IC50 in test [1] lay in the range of 0.05 to 1 µM; in the test with MDA-MB-436 cells, 1 to 10 µM.
With `CCn1cc(C(F)(F)F)nc1-c1cnc(N2CCc3c(C)nn(-c4c(OC)ncnc4C4CC4)c3C2)cn1` [Compound 32, 1-(4-cyclopropyl-6-methoxypyrimidin-5-yl)-6-(5-(1-ethyl-4-(trifluoromethyl)-1H-imidazol-2-yl)pyrazin-2-yl)-3-methyl-4,5,6,7-tetrahydro-1H-pyrazolo[3,4-c]pyridine], the half-maximal inhibitory concentration (IC50) in test [1] is below 0.05 µM; in the test on MDA-MB-436 cells, 0.05 to 1 µM.
